Measured values: US9593149B2, “Amylin and calcitonin receptor agonist” (Novo Nordisk A/S, priority 2014, dated 2017)
Converted amounts (≈) assume the structure as drawn. Numbered stars: 1 amine (or outer) side, 2 acyl side, 3 side chain; on linkers, the order of the positions; unused ones are H or OH. Peptide text beside a SMILES is read from it. * marks the point of attachment. C20 diacid = O=C(O)CCCCCCCCCCCCCCCCCCC(=O)*; C18 diacid = O=C(O)CCCCCCCCCCCCCCCCC(=O)*; γGlu = O=C(O)[C@H](CCC(=O)[*:2])N[*:1]

Experiment: Assay (IV) determination of solubility
Assay type: physicochemical
Protocol: Assay (IV)—Determination of Solubility
The mimylin peptide was dissolved in water at ˜500 nmol/ml and mixed 1:1 with a series of buffers (100 mM glycylglycine pH 3.0, 100 mM glycylglycine pH 4.0, 100 mM glycylglycine pH 5.0, 100 mM bistrispropane pH 6.0, 100 mM bistrispropane pH 6.5, 100 mM bistrispropane pH 7.0, 100 mM bistrispropane pH 7.5, 100 mM bistrispropane pH 8.0).

| SMILES | Solubility (pH 3.0) | Solubility (pH 4.0) | solubility at 18 h (pH 5.0) [µM] | Solubility (pH 5.0) | Solubility (pH 6.0) | Solubility (pH 6.5) | Solubility (pH 7.0) | Solubility (pH 7.5) | Solubility (pH 8.0) | also measured |
| --- | --- | --- | --- | --- | --- | --- | --- | --- | --- | --- |
| CC(C)C[C@H](NC(=O)CNC(=O)[C@H](CO)NC(=O)[C@H](CC(C)C)NC(=O)[C@H](CCC(=O)O)NC(=O)CC[C@H](NC(=O)CCCCCCCCCCCCCCCCCCC(=O)O)C(=O)O)C(=O)N[C@@H](CO)C(=O)N[C@H](C(=O)N[C@@H](CC(C)C)C(=O)N[C@H](C(=O)N[C@@H](CC(C)C)C(=O)NCC(=O)N[C@@H](CCCNC(=N)N)C(=O)N[C@@H](CC(C)C)C(=O)N[C@@H](CO)C(=O)N[C@@H](CCC(N)=O)C(=O)N[C@@H](CCC(=O)O)C(=O)N[C@@H](CC(C)C)C(=O)N[C@@H](Cc1cnc[nH]1)C(=O)N[C@@H](CCC(=O)O)C(=O)N[C@@H](CC(C)C)C(=O)N[C@@H](CCC(N)=O)C(=O)N[C@H](C(=O)N[C@@H](Cc1ccc(O)cc1)C(=O)N1CCC[C@H]1C(=O)N[C@@H](CCCNC(=N)N)C(=O)N[C@H](C(=O)NCC(=O)N[C@H](C(=O)NCC(=O)N[C@@H](CO)C(=O)NCC(=O)N[C@H](C(=O)N[C@@H](Cc1ccc(O)cc1)C(N)=O)[C@@H](C)O)[C@@H](C)O)[C@@H](C)O)[C@@H](C)O)C(C)C)[C@@H](C)O [compound 129, [N-terminal(C20 diacid-gGlu), 2L, 4G, 8L, 9V, 15Q, 21Q, 23Y, 27G, 30S, 31G, 32T, 33Y]mimylin] ({C20 diacid-γGlu}-ELSGLSTLVLGRLSQELHELQTYPRTGTGSGTY-NH2) | ≧200 μM | ≧200 μM | 1 (≈ 4.02 µg/mL) |  |  |  |  |  |  | solubility at 18 h (pH 6.0): 1 µM (≈ 4.02 µg/mL); solubility at 18 h (pH 6.5): 1 µM (≈ 4.02 µg/mL); solubility at 18 h (pH 7.0): 1 µM (≈ 4.02 µg/mL); solubility at 18 h (pH 7.5): 52 µM (≈ 209 µg/mL); solubility at 18 h (pH 8.0): 185 µM (≈ 743 µg/mL) |
| CC(C)C[C@H](NC(=O)[C@H](C)NC(=O)[C@H](C)NC(=O)[C@@H](NC(=O)[C@H](CO)NC(=O)[C@H](CC(C)C)NC(=O)[C@H](CCC(=O)O)NC(=O)[C@H](CO)NC(=O)[C@H](C)NC(=O)CC[C@H](NC(=O)CCCCCCCCCCCCCCCCCCC(=O)O)C(=O)O)[C@@H](C)O)C(=O)NCC(=O)N[C@@H](CCCNC(=N)N)C(=O)N[C@@H](CC(C)C)C(=O)N[C@@H](CO)C(=O)N[C@@H](C)C(=O)N[C@@H](CCC(=O)O)C(=O)N[C@@H](CC(C)C)C(=O)N[C@@H](Cc1cnc[nH]1)C(=O)N[C@@H](CCC(=O)O)C(=O)N[C@@H](CC(C)C)C(=O)N[C@@H](C)C(=O)N[C@H](C(=O)N[C@@H](CC(C)C)C(=O)N1CCC[C@H]1C(=O)N[C@@H](CCCNC(=N)N)C(=O)N[C@H](C(=O)N[C@@H](CCC(=O)O)C(=O)N[C@H](C(=O)NCC(=O)N[C@@H](CO)C(=O)NCC(=O)N[C@@H](CO)C(=O)NCC(N)=O)[C@@H](C)O)[C@@H](C)O)[C@@H](C)O [compound 64, [N-terminal(C20 diacid-gGlu), des1, 30S, 31G, 33G]mimylin] ({C20 diacid-γGlu}-ASELSTAALGRLSAELHELATLPRTETGSGSG-NH2) | ≧200 μM | ≧200 μM |  | ≧200 μM | ≧200 μM | ≧200 μM | ≧200 μM | ≧200 μM | ≧200 μM |  |
| CC(C)C[C@H](NC(=O)CNC(=O)[C@H](CO)NC(=O)[C@H](C)NC(=O)CC[C@H](NC(=O)CCCCCCCCCCCCCCCCCCC(=O)O)C(=O)O)C(=O)N[C@@H](CO)C(=O)N[C@H](C(=O)N[C@@H](C)C(=O)N[C@H](C(=O)N[C@@H](CC(C)C)C(=O)NCC(=O)N[C@@H](CCCNC(=N)N)C(=O)N[C@@H](CC(C)C)C(=O)N[C@@H](CO)C(=O)N[C@@H](CCC(N)=O)C(=O)N[C@@H](CCC(=O)O)C(=O)N[C@@H](CC(C)C)C(=O)N[C@@H](Cc1cnc[nH]1)C(=O)N[C@@H](CCC(=O)O)C(=O)N[C@@H](CC(C)C)C(=O)N[C@@H](CCC(N)=O)C(=O)N[C@H](C(=O)N[C@@H](Cc1ccc(O)cc1)C(=O)N1CCC[C@H]1C(=O)N[C@@H](CCCNC(=N)N)C(=O)N[C@H](C(=O)N[C@@H](CCC(=O)O)C(=O)N[C@H](C(=O)NCC(=O)N[C@@H](CO)C(=O)NCC(=O)N[C@H](C(=O)N[C@@H](Cc1ccc(O)cc1)C(N)=O)[C@@H](C)O)[C@@H](C)O)[C@@H](C)O)[C@@H](C)O)[C@@H](C)O)[C@@H](C)O [compound 124, [N-terminal(C20 diacid-gGlu), des1, 4G, 9T, 15Q, 21Q, 23Y, 30S, 31G, 32T, 33Y]mimylin] ({C20 diacid-γGlu}-ASGLSTATLGRLSQELHELQTYPRTETGSGTY-NH2) | ≧200 μM | ≧200 μM | 61 (≈ 237 µg/mL) |  | ≧200 μM | ≧200 μM | ≧200 μM | ≧200 μM | ≧200 μM |  |
| CC(C)C[C@H](NC(=O)[C@H](CCC(=O)O)NC(=O)[C@H](Cc1cnc[nH]1)NC(=O)[C@H](CC(C)C)NC(=O)[C@H](CCC(=O)O)NC(=O)[C@H](C)NC(=O)[C@H](CO)NC(=O)[C@H](CC(C)C)NC(=O)[C@H](CCCNC(=N)N)NC(=O)CNC(=O)[C@H](CC(C)C)NC(=O)[C@@H](NC(=O)[C@H](C)NC(=O)[C@@H](NC(=O)[C@H](CO)NC(=O)[C@H](CC(C)C)NC(=O)[C@H](CCC(=O)O)NC(=O)[C@@H]1CCCN1C(=O)[C@H](C)NC(=O)[C@H](CCC(=O)O)NC(=O)CCCCCCCCCCCCCCCCC(=O)O)[C@@H](C)O)C(C)C)C(=O)N[C@@H](C)C(=O)N[C@H](C(=O)N[C@@H](CC(C)C)C(=O)N1CCC[C@H]1C(=O)N[C@@H](CCCNC(=N)N)C(=O)N[C@H](C(=O)N[C@@H](CCC(=O)O)C(=O)N[C@H](C(=O)NCC(=O)N1CCC[C@H]1C(=O)N[C@@H](CCC(=O)O)C(=O)N[C@@H](CO)C(=O)N1CCC[C@H]1C(N)=O)[C@@H](C)O)[C@@H](C)O)[C@@H](C)O [compound 29, [N-terminal(C18 diacid), 3P, 9V]mimylin] ({C18 diacid}-EAPELSTAVLGRLSAELHELATLPRTETGPESP-NH2) | ≧200 μM | ≧200 μM |  | ≧200 μM | ≧200 μM | ≧200 μM | ≧200 μM | ≧200 μM | ≧200 μM |  |
| CC(C)C[C@H](NC(=O)[C@H](C)NC(=O)[C@H](C)NC(=O)[C@@H](NC(=O)[C@H](CO)NC(=O)[C@H](CC(C)C)NC(=O)[C@H](CCC(N)=O)NC(=O)[C@H](CO)NC(=O)[C@H](C)NC(=O)CC[C@H](NC(=O)CCCCCCCCCCCCCCCCC(=O)O)C(=O)O)[C@@H](C)O)C(=O)NCC(=O)N[C@@H](CCCNC(=N)N)C(=O)N[C@@H](CC(C)C)C(=O)N[C@@H](CO)C(=O)N[C@@H](C)C(=O)N[C@@H](CCC(N)=O)C(=O)N[C@@H](CC(C)C)C(=O)N[C@@H](Cc1cnc[nH]1)C(=O)N[C@@H](CCC(=O)O)C(=O)N[C@@H](CC(C)C)C(=O)N[C@@H](C)C(=O)N[C@H](C(=O)N[C@@H](CC(C)C)C(=O)N1CCC[C@H]1C(=O)N[C@@H](CCCNC(=N)N)C(=O)N[C@H](C(=O)N[C@@H](CCC(=O)O)C(=O)N[C@H](C(=O)NCC(=O)N[C@@H](CO)C(=O)NCC(=O)N[C@@H](CO)C(=O)N1CCC[C@H]1C(N)=O)[C@@H](C)O)[C@@H](C)O)[C@@H](C)O [compound 87, [N-terminal(C18 diacid-gGlu), des1, 4Q, 16Q, 30S, 31G]mimylin] ({C18 diacid-γGlu}-ASQLSTAALGRLSAQLHELATLPRTETGSGSP-NH2) |  |  |  |  |  | ≧200 μM |  | ≧200 μM |  | Solubility (pH 3): ≧200 μM; Solubility (pH 4): ≧200 μM; Solubility (pH 5): ≧200 μM; Solubility (pH 6): ≧200 μM; Solubility (pH 7): ≧200 μM; Solubility (pH 8): ≧200 μM |
| CC[C@H](C)[C@H](NC(=O)[C@H](C)NC(=O)[C@@H](NC(=O)[C@H](CO)NC(=O)[C@@H](NC(=O)[C@H](CCC(=O)O)NC(=O)[C@H](CO)NC(=O)[C@H](C)NC(=O)[C@H](CCC(=O)O)NC(=O)CCCCCCCCCCCCCCCCC(=O)O)[C@@H](C)CC)[C@@H](C)O)C(=O)N[C@H](C(=O)NCC(=O)N[C@@H](CCCNC(=N)N)C(=O)N[C@@H](CC(C)C)C(=O)N[C@@H](CO)C(=O)N[C@@H](C)C(=O)N[C@@H](CCC(=O)O)C(=O)N[C@@H](CC(C)C)C(=O)N[C@@H](Cc1cnc[nH]1)C(=O)N[C@@H](CCC(=O)O)C(=O)N[C@H](C(=O)N[C@@H](C)C(=O)N[C@H](C(=O)N[C@@H](CC(C)C)C(=O)N1CCC[C@H]1C(=O)N[C@@H](CCCNC(=N)N)C(=O)N[C@H](C(=O)N[C@@H](CCC(=O)O)C(=O)N[C@H](C(=O)NCC(=O)N1CCC[C@H]1C(=O)N[C@@H](CCC(=O)O)C(=O)N[C@@H](CO)C(=O)N1CCC[C@H]1C(N)=O)[C@@H](C)O)[C@@H](C)O)[C@@H](C)O)[C@@H](C)CC)[C@@H](C)CC [compound 77, [N-terminal(C18 diacid), 5I, 9I, 10I, 20I]mimylin] ({C18 diacid}-EASEISTAIIGRLSAELHEIATLPRTETGPESP-NH2) | ≧200 μM |  | 11 (≈ 41.5 µg/mL) |  | ≧200 μM | ≧200 μM | ≧200 μM | ≧200 μM | ≧200 μM | solubility at 18 h (pH 4.0): 7 µM (≈ 26.4 µg/mL) |
